We go through five molecules from US4362663A, “Maytansinoid compound” (Takeda Chemical Industries, Ltd., priority 1979, dated 1982).

Structures are written as SMILES. ≈ marks a conversion by molar mass, not a printed value.

One series is described as follows: Solubility. It is filed as physicochemical.
The subject of another series is Bacillus cereus. In words: Antimicrobial activity, paper disk method on trypticase-soy-agar. In kind it is cell-based. Conditions: paper disk diam. 8 mm, 0.02 ml of a 300 μg/ml solution. Here is the method:
(§1) Using trypticase-soy-agar (Baltimore Biologicals, U.S.A.) as a test medium, the minimal inhibitory concentration of each compound against the following microorganisms was determined by the paper disk method. Thus, on plate media containing the following organisms, growth inhibition was investigated using paper disks (Toyo Roshi Corp., Japan thin-type, diam. 8 mm) imbibed with 0.02 ml of a 300 μg/ml solution of PND-1, PND-2, PND-3 or PND-4.
(§2) Escherichia coli, Proteus vulgaris, Proteus mirabilis, Pseudomonas aeruginosa, Staphylococcus aureus, Bacillus subtilis, Bacillus cereus, Klebsiella pneumoniae, Serratia marcescens, Mycobacterium avium.

The next series relates to Bacillus subtilis. Described as above. In kind it is cell-based. Conditions: paper disk diam. 8 mm, 0.02 ml of a 300 μg/ml solution. The protocol:
as §1, §2

Another series concerns Escherichia coli. The series is described as above. In kind it is cell-based. Conditions: paper disk diam. 8 mm, 0.02 ml of a 300 μg/ml solution. Here is the method:
as §1, §2

The subject of another series is Klebsiella pneumoniae. The description is as above. Conditions: paper disk diam. 8 mm, 0.02 ml of a 300 μg/ml solution. In kind it is cell-based. Here is the method: as §1, §2
In another series the test system is Mycobacterium avium. The description is as above. In kind it is cell-based. The note with it: paper disk diam. 8 mm, 0.02 ml of a 300 μg/ml solution. The protocol: as §1, §2
The test system of another series is Proteus mirabilis. The series is described as above. It is filed as cell-based. Conditions: paper disk diam. 8 mm, 0.02 ml of a 300 μg/ml solution. The protocol: as §1, §2
For another series, the system named is Proteus vulgaris. Described as above. The note with it: paper disk diam. 8 mm, 0.02 ml of a 300 μg/ml solution. In kind it is cell-based. Here is the method: as §1, §2
A further series deals with Pseudomonas aeruginosa. Described as above. It is filed as cell-based. The note with it: paper disk diam. 8 mm, 0.02 ml of a 300 μg/ml solution. The protocol:
as §1, §2

The subject of another series is Serratia marcescens. Described as above. It is filed as cell-based. The note with it: paper disk diam. 8 mm, 0.02 ml of a 300 μg/ml solution. The protocol:
as §1, §2

Another series relates to Staphylococcus aureus. The series is described as above. In kind it is cell-based. The note with it: paper disk diam. 8 mm, 0.02 ml of a 300 μg/ml solution. Here is the method: as §1, §2
The subject of series [1] is Hamigera avellanea IFO 7721. As to the kind of experiment: Microbiological assay, paper disk method. Conditions: IFO7721, paper disk diam. 8 mm, 0.02 ml of a 100 μg/ml solution, pH 7.0 medium, read-out: diameter of zone of inhibition. In kind it is cell-based. Here is the method:
On the other hand, on a plate assay medium [disodium phosphate 3.5 g, monopotassium phosphate 0.5 g, yeast extract (Difco, U.S.A.) 5 g, glucose 10 g, agar 15 g, distilled water 1000 ml, pH 7.0], a microbiological assay was carried out by the paper disk method using Hamigera avellanea IFO 7721 as a test organism. On said plate medium inoculated with said organism, growth inhibition was examined using a paper disk (Toyo Roshi Corp., Japan, Thin type, diam.8 mm) imbibed with 0.02 ml of a 100 μg/ml solution of PND-1, PND-2, PND-3 or PND-4. The diameters of zones of inhibition were 28 mm for PND-1, 30 mm for PND-2, 34 mm for PND-3 and 36 mm for PND-4.

Series [2] deals with Tetrahymena pyriformis W strain. In words: Minimal inhibitory concentration, serial broth dilution method. It is filed as cell-based. Conditions: 28° C., 44 to 48 hours. Here is the method:
On the other hand, Tetrahymena pyriformis W strain, as a test organism, was cultivated on an assay medium [Proteose-peptone (Difco) 20 g, yeast extract 1 g, glucose 2 g, distilled water 1000 ml, 1 M phosphate buffer (pH 7.0) 10 ml] at 28° C. for 44 to 48 hours and the minimal inhibitory concentrations of the antibiotics against said organisms were determined by the serial broth dilution method.
A general note: Dilution methods test growth across graded concentrations, often in twofold steps.

Another series concerns P388 tumor cell. In words: Antitumor activity in P388 tumor-bearing mice. It is filed as in vivo. Conditions: P388 1×10^6 cell/mouse, intraperitoneal. The text has this:
The therapeutic action of PND-1, PND-2, PND-3 and PND-4 against P388 tumor cell (1×10^6 cell/mouse, intraperitoneal) was investigated.

The next series deals with mice. As to the kind of experiment: Acute toxicity test in mice. In kind it is in vivo. Conditions: intraperitoneal. The source says:
In an acute toxicity test performed in mice, PND-1, PND-2, PND-3 and PND-4 were given to animals by the intraperitoneal route.

Regarding `COc1cc2cc(c1Cl)NC(=O)C[C@H](O)[C@]1(C)O[C@H]1[C@H](C)[C@@H]1C[C@@](O)(NC(=O)O1)[C@H](OC)/C=C/C=C(\C)C2` [PND-0], in “Solubility”, the “Solubility in chloroform, ethyl acetate, acetone, ethanol, methanol, pyridine, tetrahydrofuran, dimethylsulfoxydo” value (“Solubility in chloroform, ethyl acetate” for short) is given as “soluble” and the “Solubility in petroleum ether, n-hexane, water” value (from here on “Solubility in petroleum ether”) is “insoluble”.
In general, zone of inhibition refers to the size of the clear area around the sample on an inoculated plate. A word on the MIC: it is the lowest concentration found to suppress growth. Read a low MIC as inhibition by little substance. Regarding `COc1cc2cc(c1Cl)NC(=O)C[C@H](OC(C)=O)[C@]1(C)O[C@H]1[C@H](C)[C@@H]1C[C@@](O)(NC(=O)O1)[C@H](OC)/C=C/C=C(\C)C2` [PND-1], the growth inhibition entry in the series on Bacillus cereus, in the series with Bacillus subtilis, with Escherichia coli, in the series on Klebsiella pneumoniae, in the series on Mycobacterium avium and in the series on Proteus mirabilis was “did not exhibit activity” throughout. The growth inhibition result in the series with Proteus vulgaris, with Pseudomonas aeruginosa, with Serratia marcescens and in the series on Staphylococcus aureus was “did not exhibit activity” each time. Moreover, the zone of inhibition at 100 µg/mL in series [1] amounted to 28 mm. In series [2], this molecule yielded a minimal inhibitory concentration (MIC) of 8 µg/mL (≈ 13.5 µM). Besides, in the series on P388 tumor cell, the “life span of tumor-bearing mouse” value is “prolong the life span of a tumor-bearing mouse”. Further, the LD0 with mice came to 0.313 mg/kg. In the series with mice, the LD100 is 2.5 mg/kg. In addition, the “Solubility in chloroform, ethyl acetate” value in the series “Solubility” was “soluble”. In the series “Solubility”, the “Solubility in petroleum ether” value is “insoluble”.
Take `CCC(=O)O[C@H]1CC(=O)Nc2cc(cc(OC)c2Cl)C/C(C)=C/C=C/[C@@H](OC)[C@@]2(O)C[C@H](OC(=O)N2)[C@@H](C)[C@@H]2O[C@@]12C` [PND-2]: the growth inhibition entry with Bacillus cereus, in the series on Bacillus subtilis, with Escherichia coli, in the series on Klebsiella pneumoniae, in the series on Mycobacterium avium and in the series on Proteus mirabilis was “did not exhibit activity” each time. Also, the growth inhibition result in the series with Proteus vulgaris, in the series with Pseudomonas aeruginosa, in the series on Serratia marcescens and with Staphylococcus aureus was “did not exhibit activity” throughout. Also, the zone of inhibition at 100 µg/mL in [1] is 30 mm. In [2], inhibition of growth (MIC) required 4 µg/mL (≈ 6.59 µM). Moreover, the “life span of tumor-bearing mouse” value in the series on P388 tumor cell is recorded as “prolong the life span of a tumor-bearing mouse”. The molecule also returned an LD0 with mice of 0.313 mg/kg. This molecule also came in with an LD100 in the series on mice of 2.5 mg/kg. Also, the “Solubility in chloroform, ethyl acetate” value in the series “Solubility” is recorded as “soluble”. Also, the “Solubility in petroleum ether” value in the series “Solubility” is “insoluble”.
As for `COc1cc2cc(c1Cl)NC(=O)C[C@H](OC(=O)C(C)C)[C@]1(C)O[C@H]1[C@H](C)[C@@H]1C[C@@](O)(NC(=O)O1)[C@H](OC)/C=C/C=C(\C)C2` [PND-3], the growth inhibition result with Bacillus cereus, in the series with Bacillus subtilis, in the series with Escherichia coli, in the series on Klebsiella pneumoniae, with Mycobacterium avium and with Proteus mirabilis was “did not exhibit activity” in each case. Moreover, the growth inhibition entry in the series on Proteus vulgaris, with Pseudomonas aeruginosa, in the series on Serratia marcescens and in the series on Staphylococcus aureus was “did not exhibit activity” in each case. Also, the zone of inhibition at 100 µg/mL in [1] turned out to be 34 mm. It took 2 µg/mL (≈ 3.22 µM) to inhibit growth in series [2] (MIC). Also, in the series on P388 tumor cell, the “life span of tumor-bearing mouse” value is listed as “prolong the life span of a tumor-bearing mouse”. The LD0 in the series with mice stood at 0.313 mg/kg. Also, in the series with mice, the LD100 worked out at 2.5 mg/kg. In addition, the “Solubility in chloroform, ethyl acetate” value in the series “Solubility” was “soluble”. Further, in “Solubility”, the “Solubility in petroleum ether” value is reported as “insoluble”.
Take `COc1cc2cc(c1Cl)NC(=O)C[C@H](OC(=O)CC(C)C)[C@]1(C)O[C@H]1[C@H](C)[C@@H]1C[C@@](O)(NC(=O)O1)[C@H](OC)/C=C/C=C(\C)C2` [PND-4]: the growth inhibition entry in the series with Bacillus cereus, in the series on Bacillus subtilis, with Escherichia coli, with Klebsiella pneumoniae, with Mycobacterium avium and in the series with Proteus mirabilis was “did not exhibit activity” throughout. The growth inhibition result with Proteus vulgaris, in the series with Pseudomonas aeruginosa, in the series with Serratia marcescens and with Staphylococcus aureus was “did not exhibit activity” each time. The zone of inhibition at 100 µg/mL in series [1] is 36 mm. The molecule further gave an MIC in [2] of 1 µg/mL (≈ 1.57 µM). In the series with P388 tumor cell, the “life span of tumor-bearing mouse” value is given as “prolong the life span of a tumor-bearing mouse”. This molecule came in with an LD0 in the series on mice of 0.313 mg/kg. This molecule also displayed an LD100 in the series on mice of 2.5 mg/kg. In addition, the “Solubility in chloroform, ethyl acetate” value in “Solubility” is “soluble”. Also, the “Solubility in petroleum ether” value in “Solubility” is listed as “insoluble”.
